PMC5048394, “Development and substrate specificity screening of an in vivo biosensor for the detection of biomass derived aromatic chemical building blocks” (Chemical Communications (Cambridge, England), 2016)
Read-outs that look alike come from different tables or passages of the source.

What was measured:
PPC biosensor [1] = assay: PPC biosensor eGFP expression (RFU/OD600) in E. coli BL21; assay type: cell-based
Protocol: (§1) Cells were centrifuged, washed and re-suspended with PBS buffer. The expression output was then analyzed by monitoring the fluorescence normalised to cell density (RFU/OD600) in a multimode plate reader (Methods, ESI ^†).
(§2) The sequences containing the PLC, PPC and PferB promoters, a RBS, and a Hexa-Histidine tag, flanked by SphI/NdeI were synthetized (GeneART, ThermoFisher). The sequences were enzyme restricted with SphI/NdeI and cloned in pET44eGFP,2 upstream to the eGFP gene, replacing the T7 promoter region generating respectively, the pET44PLCeGFP, pET44PPCeGFP and pET44PferBeGFP vectors.
(§3) The FerCA DNA sequence containing the ferA and ferC genes, individually flanked by a PLacI promoter and an rrn_B1 terminator, was synthetized by GeneARTTM (ThermoFisher).
(§4) The construct was cloned in a p15 plasmid flanked by NaeI/KasI restriction sites generating […]
(§5) the p15FerCA vector. […]
(§6) Biosensors Performance and Screening Methods
(§7) Reporter controls and the biosensor systems PLC, PPC and PferB were respectively generated by transformation of pET44PLCeGFP, pET44PPCeGFP and pET44PFerBeGFP vectors alone or with p15FerCA in BL21 and DH10B chemically competent E. coli cells. A single colony of each system was grown in LB media supplemented with antibiotics at 37 °C with shaking at 180rpm for 16 hours. Cultures were diluted (1:100) in fresh LB media with appropriate antibiotics, re-incubated at 37 °C with shaking until OD ~0.6 and transferred (450 μL) to multi- […]
(§8) μM and 1000 μM. Induction plates were incubated at 37 °C, with shaking at 1000 RPM (Stuart microtitre plate shaker incubator) for 3 hours. Cells were harvested by centrifugation, washed twice and re-suspended with PBS buffer. Expression output was analyzed by monitoring the fluorescence normalised to cell density (RFU/OD) in a multimode plate reader. […]
(§9) Data Processing and Curve Fitting
(§10) Biosensor signal output (eGFP expression) was measured as Relative Fluorescence Units (RFU) and normalised to cell density (OD600). The background auto-fluorescence of E. coli was subtracted from RFU/OD and was normalised (%) to the pLC biosensor response curve to ferulic acid for each experiment. The normalised data was plotted and fitted with a dose-response curve using the Levenberg Marquardt logistic growth/sigmoidal algorithm, using the Origin 2015 (OriginLab, Northampton MA USA) program. The biomass screening data was […]

PferB biosensor [2] = assay: PferB biosensor eGFP expression (RFU/OD600) in E. coli BL21; assay type: cell-based
Protocol: as §1, §2, §3, §4, §5, §6, §7, §8, §9, §10

PferB biosensor [3] = assay: PferB biosensor eGFP expression in E. coli K strain (DH10B, Top10F'); assay type: cell-based
Protocol: as §1, §2, §3, §4, §5, §6, §7, §8, §9, §10

PLC biosensor [4] = assay: PLC biosensor eGFP expression in E. coli K strain (DH10B, Top10F'); assay type: cell-based
Protocol: as §1, §2, §3, §4, §5, §6, §7, §8, §9, §10

PLC biosensor [5] = assay: microbe, parasite or virus in culture; assay type: cell-based, E. coli BL21
Protocol: as §1, §2, §3, §4, §5, §6, §7, §8
Compounds for screening were selected using cinnamic acid as a reference structure. The 58 selected compounds were tested with the PLC biosensor in E. coli BL21 cells. The substrate screening assays were performed using concentrations ranging from 0.32 μM to 1000 μM, as described for Ferulic acid. […]
as §9, §10

PPC biosensor [6] = assay: PPC biosensor eGFP expression in E. coli K strain (DH10B, Top10F'); assay type: cell-based
Protocol: as §1, §2, §3, §4, §5, §6, §7, §8, §9, §10

[7] = test system: ferA knock-out (AKO) PLC and PferB systems; assay: FerA knock-out (AKO) system FA induction assay; assay type: cell-based; settings: ferA knock-out (AKO) strains, E. coli BL21
From the text: as §2, §3
The construct was cloned in a p15 plasmid flanked by NaeI/KasI restriction sites generating the p15FerCA vector. The ferA gene was removed by restriction digestion of two XbaI flanking sites. The remaining backbone with ferC was re-circularized to originate the p15FerC vector, and the obtained plasmid was sequenced to confirm identity.
as §6
Reporter controls and the biosensor systems PLC, PPC and PferB were respectively generated by transformation of pET44PLCeGFP, pET44PPCeGFP and pET44PFerBeGFP vectors alone or with p15FerCA in BL21 and DH10B chemically competent E. coli cells. […] Expression output was analyzed by monitoring the fluorescence normalised to cell density (RFU/OD) in a multimode plate reader. […]

[8] = ferulic acid dose response, PPC biosensor, E. coli BL21
[9] = ferulic acid dose response, PferB biosensor, E. coli BL21
[10] = ferulic acid dose response, PferB biosensor, Top10F' (DH10B)
[11] = PLC biosensor, E. coli K strain (DH10B)
[12] = ferulic acid dose response, PLC biosensor, Top10F' (DH10B)
[13] = Escherichia coli, BL21, ferulic acid dose response, PLC biosensor, E. coli BL21
[14] = Escherichia coli, BL21, substrate screening, PLC biosensor, E. coli BL21
[15] = ferulic acid, PLC biosensor, E. coli BL21, text
[16] = ferulic acid dose response, PPC biosensor, Top10F' (DH10B)

SMILES: COc1cc(/C=C/C(=O)O)ccc1O [compound 1, trans-Ferulic acid]
- EC50 (PPC biosensor [1]; Escherichia coli, BL21): 11.2 ± 1.1 µM
- EC90 (PPC biosensor [1]; Escherichia coli, BL21): 38 µM
- Concentration for complete de-repression (PPC biosensor [1]; [8]): ≥ 40 µM
- EC10 (PPC biosensor [1]; [8]): 3.3 µM
- Ebasal (fitting curve) (PPC biosensor [1]; [8]): 4.2 RFU/OD
- Emax (fitting curve) (PPC biosensor [1]; [8]): 46.6 RFU/OD
- Sensing range (EC90/EC10) (PPC biosensor [1]; [8]): 11.5
- Signal range (max/min) (PPC biosensor [1]; [8]): 10.4
- p (fitting curve) (PPC biosensor [1]; [8]): 1.8
- EC50 (PferB biosensor [2]; Escherichia coli, BL21): 60.5 ± 2.3 µM
- EC90 (PferB biosensor [2]; Escherichia coli, BL21): 191 µM
- EC10 (PferB biosensor [2]; [9]): 19.2 µM
- Ebasal (fitting curve) (PferB biosensor [2]; [9]): 3.7 RFU/OD
- Emax (fitting curve) (PferB biosensor [2]; [9]): 17.0 RFU/OD
- Sensing range (EC90/EC10) (PferB biosensor [2]; [9]): 9.9
- Signal range (max/min) (PferB biosensor [2]; [9]): 5.0
- p (fitting curve) (PferB biosensor [2]; [9]): 1.9
- De-repression (PferB biosensor [2]; ferulic acid, PferB biosensor, E. coli BL21): effectively de-repressed
- EC50 (PferB biosensor [3]; Escherichia coli): 79.6 µM
- EC90 (PferB biosensor [3]; Escherichia coli): 276 µM
- De-repression (PferB biosensor [3]; PferB biosensor, E. coli K strain (DH10B)): complete de-repression
- EC10 (PferB biosensor [3]; [10]): 22.9 µM
- Ebasal (fitting curve) (PferB biosensor [3]; [10]): 4.3 RFU/OD
- Emax (fitting curve) (PferB biosensor [3]; [10]): 20.5 RFU/OD
- Sensing range (EC90/EC10) (PferB biosensor [3]; [10]): 12.0
- Signal range (max/min) (PferB biosensor [3]; [10]): 4.7
- p (fitting curve) (PferB biosensor [3]; [10]): 1.8
- EC50 (PLC biosensor [4]; Escherichia coli): 22.8 ± 5.2 µM
- EC90 (PLC biosensor [4]; Escherichia coli): 83 µM
- De-repression (PLC biosensor [4]; [11]): incomplete de-repression
- Relative signal range (PLC biosensor [4]; [11]): ~19 fold
- Sensing range (EC90/EC10) (PLC biosensor [4]; [11]): 13 fold
- EC10 (PLC biosensor [4]; [12]): 6.3 µM
- Ebasal (fitting curve) (PLC biosensor [4]; [12]): 6.1 RFU/OD
- Emax (fitting curve) (PLC biosensor [4]; [12]): 100.0 RFU/OD
- Sensing range (EC90/EC10) (PLC biosensor [4]; [12]): 13.3
- Signal range (max/min) (PLC biosensor [4]; [12]): 19.2
- p (fitting curve) (PLC biosensor [4]; [12]): 1.7
- EC10 (PLC biosensor [5]; [13]): 5.6 µM
- EC50 (PLC biosensor [5]; [13]): 20.9 ± 4.2 µM
- EC90 (PLC biosensor [5]; [13]): 77.4 µM
- Emax (PLC biosensor [5]; Escherichia coli, BL21, read-out: Induction): > 70%
- maximal fold induction (PLC biosensor [5]; Escherichia coli, BL21, read-out: Signal range (max/min), ferulic acid dose response, PLC biosensor, E. coli BL21): 22.8
- maximal fold induction (PLC biosensor [5]; Escherichia coli, BL21, read-out: Signal range (max/min), substrate screening, PLC biosensor, E. coli BL21): 26.2
- EC10 (PLC biosensor [5]; [14]): 3.9 µM
- EC50 (PLC biosensor [5]; [14]): 15.3 ± 0.9 µM
- EC90 (PLC biosensor [5]; [14]): 59.5 µM
- Saturation concentration (PLC biosensor [5]; ferulic acid dose response, PLC biosensor, E. coli BL21): ≥ 100 µM
- De-repression (incomplete), % of the PLC reporter (PLC biosensor [5]; ferulic acid, PLC biosensor, E. coli BL21): ~85%
- Sensing range (PLC biosensor [5]; [15]): 13 fold
- Signal range (PLC biosensor [5]; [15]): ~23 fold
- Induction (PLC biosensor [5]; substrate screening, PLC biosensor, E. coli BL21, 0.32–1000 μM): H (high output signals, and hence good efficacy (>70%))
- Signal read-out range (PLC biosensor [5]; substrate screening, PLC biosensor, E. coli BL21, text): > 25 fold
- EC50 (PPC biosensor [6]; Escherichia coli): 10.4 µM
- EC90 (PPC biosensor [6]; Escherichia coli): 33.3 µM
- De-repression (PPC biosensor [6]; PPC biosensor, E. coli K strain (DH10B)): complete de-repression
- EC10 (PPC biosensor [6]; [16]): 3.3 µM
- Ebasal (fitting curve) (PPC biosensor [6]; [16]): 4.7 RFU/OD
- Emax (fitting curve) (PPC biosensor [6]; [16]): 44.7 RFU/OD
- Sensing range (EC90/EC10) (PPC biosensor [6]; [16]): 10.2
- Signal range (max/min) (PPC biosensor [6]; [16]): 12.4
- p (fitting curve) (PPC biosensor [6]; [16]): 1.9
- De-repression phenotype upon addition to growth media [7]: lacked the de-repression phenotype
